{"source": "paper PMC6823370", "about": "“A novel nucleoside rescue metabolic pathway may be responsible for therapeutic effect of orally administered cordycepin” (Scientific Reports, 2019)", "key": {"[1]": {"test": "In vivo pharmacokinetics in rats after intravenous or oral cordycepin", "set-up": "species or system Sprague Dawley rats", "conditions": "male, Sprague Dawley; for C0: in vivo, read-out: C0 of 3′-deoxyinosine; for Vd: plasma, rat, read-out: Vss of 3′-deoxyinosine", "protocol": "Protocols for the animal experiments in this study were reviewed and approved by the University of Nottingham Ethical Review Committee in accordance with the Animals [Scientific Procedures] Act 1986. Four male Sprague Dawley rats (Charles River Laboratories, UK) of 300–350 g body weight were used. The animals were housed in the Bio Support Unit, University of Nottingham at controlled temperature, 12 h light/dark cycle and free access to food and water. The animals were allowed to acclimatise for at least six days prior to any procedures.\nPrior to pharmacokinetic studies, jugular vein cannulation surgery was performed under general anaesthesia (<3% isoflurane inhalation) for blood sampling or intravenous drug administration. Following two nights of recovery from surgery, the animals were intravenously or orally administered with the PBS-based formulation (5.5 mg/mL cordycepin) developed in a previously reported study. The dose was 8 or 20 mg/kg for intravenous administration and 8 or 80 mg/kg for oral administration. […] When whole blood was analysed, an aliquot was withdrawn immediately after mixing with the pretreated pentostatin. Otherwise, the mixture was centrifuged (3000 g, 10 min) to obtain plasma and samples were stored within the storage conditions tested prior to analysis.\n(§1) Samples from Caco-2 permeability, in vitro determination of CordyTP formation and in vivo experiments were subjected to protein precipitation followed by LC-MS/MS analysis. To 50 µL of rat plasma sample, 150 µL of internal standard solution (1.67 µg/mL 2-chloroadenosine in methanol) was added. The samples were then vortex-mixed for 10 s and were centrifuged for 3 min at 17949 g. Supernatant (20 µL) was collected and diluted 10-fold with DDW before injection into the LC-MS/MS for analysis of cordycepin and 3′-deoxyinosine. For analysis of CordyTP, the supernatant was filtered using filter tubes mentioned above and injected without dilution. Tissue samples were homogenised using Bullet Blender Gold (Next Advance, Inc., Troy, NY) in methanol (1:3 w/v) and centrifuged for 3 min at 17949 g. The supernatant was filtered and injected for analysis of CordyTP or diluted 10-fold with DDW for analysis of cordycepin and 3′-deoxyinosine. The LC-MS/MS system was a API4000 QTrap (AB Sciex, Warrington, UK) equipped with HPLC setup of SCL10Avp controller, LC10ADvp pump and SILHTC autosampler (Shimadzu, Milton Keynes, UK). Three different methods were utilised for each compound and multiple reaction monitoring parameters of the MS/MS conditions are shown in Table 1. The HPLC conditions including stationary phases and specific mass spectrometry parameters are shown in Supplementary Information 2. The LC-MS/MS method for cordycepin was fully validated in terms of accuracy, precision, sensitivity, selectivity, linearity and sample storage stability in accordance with the Guidance for Industry, Bioanalytical Method Validation, (2018) published by the US FDA (refer to Supplementary Information 3 for validation procedures and results)[53].\nData are presented as mean ± standard deviation (SD). A two-tailed unpaired t-test was applied for assessment of statistical significance of differences between two groups. For three or more groups, the statistical significance was assessed by application of a one-way ANOVA followed by Tukey’s multiple comparisons test. A p-value lower than 0.05 was deemed statistically significant. Statistical analyses were conducted using GraphPad Prism version 7.01 (GraphPad Software, Inc., La Jolla, CA, USA). Pharmacokinetic parameters were obtained by non-compartmental analysis using Phoenix WinNonlin 6.3 software (Pharsight, Mountain View, CA, USA).\nFor calculation of pharmacokinetic parameters, the plasma concentration-time curve was plotted in a semi-log scale. From the plot, the elimination rate constant (ke) was calculated. Elimination half-life (t1/2) wasthen calculated using the following equation: […]"}, "RAW264.7 cells": {"system": "RAW264.7 cells", "test": "Repression of inflammatory gene expression in LPS-stimulated RAW264.7 cells (qPCR)", "format": "cell-based, mouse", "conditions": "for effect of pre-treatment on the inhibitory effect of cordycepin on inflammatory gene expression: LPS", "protocol": "RAW 264.7 mouse macrophage cells were cultured in DMEM supplemented with 10% FBS. Prior to experiments, cells were washed with PBS and cells were maintained in DMEM with 0.5% FBS or 10% FBS for 24 h. LPS was added at 1 µg/mL, 1 h before compound treatment, when needed. When the cells were analysed for concentration levels of cordycepin, 3′-deoxyinosine and CordyTP, the cells were washed twice with PBS. The cells were then treated with methanol and mixed vigorously before the mixture was harvested. The mixture was filtered using filter tubes mentioned above and the filtrate was analysed by liquid chromatography coupled with tandem mass spectrometry (LC-MS/MS). For determination of relative mRNA levels, RNA was isolated from the lysates using an RNA isolation kit, following manufacturer’s protocol (Promega, Madison, WI, cat no. Z6012). RNA was reverse transcribed to cDNA using SuperScript™ III reverse transcriptase (Invitrogen, Carlsbad, CA). Quantitative polymerase chain reaction (qPCR), was performed with Qiagen Rotor-Gene Q qPCR machine (Qiagen, Hilden, Germany) using Promega SYBR Green GoTaq® qPCR master mix (Promega).\nFigure 3 Repression effect on inflammatory gene expression. (a) NBTI or ITu treatment prior to cordycepin treatment suppresses effect of cordycepin. RAW264.7 cells were treated with 10 µM NBTI, 100 nM ITu or DMSO (Ctrl, control) 15 min prior to cordycepin treatment. The cells were stimulated with LPS 1 h after cordycepin treatment (mean ± SD, n = 3). **p < 0.01; ***p < 0.001 compared to DMSO treatment (labelled as Ctrl). (b) 3′-deoxyinosine exerts same repression effect as cordycepin, although to a lesser degree. RAW264.7 cells were treated with 20 µM cordycepin, 20 µM 3′-deoxyinosine (3DI) or DMSO (Ctrl, control) for 1 h prior to LPS stimulation (mean ± SD, n = 3). **p < 0.01; ***p < 0.001 compared to without compound treatment (labelled as LPS)."}, "Caco-2 permeability": {"test": "Caco-2 permeability", "format": "in vitro ADME", "conditions": "human, Caco-2; read-out: Papp of 3′-deoxyinosine, A to B", "protocol": "(§2) Caco-2 permeability assays were conducted following previously reported methods with 21-day maintenance on the Corning 24-well Transwell® (Fisher Scientific, Loughborough, UK)[48]. […] Both directions of apical-to-basolateral and basolateral-to-apical were tested. […] The experiments were conducted in triplicates.\nas §1"}, "Caco-2 cells": {"system": "Caco-2 cells", "test": "Caco-2 permeability", "format": "in vitro ADME", "conditions": "cells treated with cordycepin in the absence of pentostatin", "protocol": "as §2, §1"}}, "note": "Read-outs that look alike come from different tables or passages of the source.", "data": [{"smiles": "OC[C@@H]1C[C@@H](O)[C@H](n2cnc3c(O)ncnc32)O1", "note": "[3′-deoxyinosine]", "values": [{"measurement": "C0", "setting": "[1]; rat plasma, intravenous cordycepin 8 mg/kg", "result": "5730 ± 1630", "unit": "ng/mL"}, {"measurement": "C0", "setting": "[1]; rat plasma, intravenous cordycepin 20 mg/kg", "result": "16300 ± 3870", "unit": "ng/mL"}, {"measurement": "Vd", "setting": "[1]; intravenous cordycepin 8 mg/kg", "result": "2.8 ± 0.3", "unit": "L/kg"}, {"measurement": "Vd", "setting": "[1]; intravenous cordycepin 20 mg/kg", "result": "3 ± 0.7", "unit": "L/kg"}, {"measurement": "Cmax", "setting": "[1]; rat plasma, oral cordycepin 8 mg/kg, read-out: Cmax of 3′-deoxyinosine", "result": "202 ± 98", "unit": "ng/mL"}, {"measurement": "effect on expression of inflammatory genes", "setting": "RAW264.7 cells; 20 µM, 1 h prior to LPS stimulation", "result": "suppressed expression of inflammatory genes"}, {"measurement": "Papp A→B at 120 min, 200 µM", "setting": "Caco-2 permeability", "result": "~0.2", "unit": "×10⁻⁶ cm/s"}, {"measurement": "permeation of 3′-deoxyinosine", "setting": "Caco-2 cells", "result": "detected"}]}, {"smiles": "Nc1ncnc2c1c(I)cn2[C@@H]1O[C@H](CO)[C@@H](O)[C@H]1O", "note": "[ITu, 5-iodotubericidin, reference compound]", "values": [{"measurement": "effect of pre-treatment on the inhibitory effect of cordycepin on inflammatory gene expression", "setting": "RAW264.7 cells; 100 nM ITu 15 min prior to cordycepin", "result": "inhibit the inhibitory effect of cordycepin"}]}, {"smiles": "O=[N+]([O-])c1ccc(CSc2ncnc3c2ncn3[C@@H]2O[C@H](CO)[C@@H](O)[C@H]2O)cc1", "note": "[NBTI, S-(4-nitrobenzyl)-6-thioinosine, reference compound]", "values": [{"measurement": "effect of pre-treatment on the inhibitory effect of cordycepin on inflammatory gene expression", "setting": "RAW264.7 cells; 10 µM NBTI 15 min prior to cordycepin", "result": "inhibit the inhibitory effect of cordycepin"}]}]}
